Data on 14 molecules can be found in ChEMBL document CHEMBL5625248, “Identification of unique indolylcyanoethylenyl sulfonylanilines as novel structural scaffolds of potential antibacterial agents” (Eur J Med Chem, 2023).

A word on the MIC: it is the least concentration at which growth counts as inhibited.

Assay type in all cases: functional
The test system of assay [1] is Staphylococcus aureus. Briefly: Antibacterial activity against Staphylococcus aureus ATCC 25923 assessed as inhibition of bacterial growth incubated for 18 hrs by two fold broth microdilution assay. (In general: Dilution methods test growth across graded concentrations, often in twofold steps.)
Assay [2] concerns Pseudomonas aeruginosa. Briefly: Antibacterial activity against Pseudomonas aeruginosa ATCC 27853 assessed as inhibition of bacterial growth incubated for 18 hrs by two fold broth microdilution assay.
The test system of assay [3] is Staphylococcus aureus. Description: Antibacterial activity against Staphylococcus aureus assessed as inhibition of bacterial growth incubated for 18 hrs by two fold broth microdilution assay.
Assay [4] concerns Enterococcus faecalis. Briefly: Antibacterial activity against Enterococcus faecalis assessed as inhibition of bacterial growth incubated for 18 hrs by two fold broth microdilution assay.
In assay [5] the test system is Staphylococcus aureus. Briefly: Antibacterial activity against methicilin-resistant Staphylococcus aureus N315 assessed as inhibition of bacterial growth incubated for 18 hrs by two fold broth microdilution assay.
Assay [6] deals with Escherichia coli. Description: Antibacterial activity against Escherichia coli assessed as inhibition of bacterial growth incubated for 18 hrs by two fold broth microdilution assay.
Assay [7] concerns Staphylococcus aureus. Description: Antibacterial activity against Staphylococcus aureus ATCC 29213 assessed as inhibition of bacterial growth incubated for 18 hrs by two fold broth microdilution assay.
Assay [8] relates to Pseudomonas aeruginosa. Description: Antibacterial activity against Pseudomonas aeruginosa assessed as inhibition of bacterial growth incubated for 18 hrs by two fold broth microdilution assay.
Assay [9] has as its system Acinetobacter baumannii. Description: Antibacterial activity against Acinetobacter baumannii assessed as inhibition of bacterial growth incubated for 18 hrs by two fold broth microdilution assay.
The test system of assay [10] is Klebsiella pneumoniae. Description: Antibacterial activity against Klebsiella pneumoniae assessed as inhibition of bacterial growth incubated for 18 hrs by two fold broth microdilution assay.
For assay [11], the system named is Escherichia coli. Briefly: Antibacterial activity against Escherichia coli ATCC 25922 assessed as inhibition of bacterial growth incubated for 18 hrs by two fold broth microdilution assay.

Structures are written as SMILES. Values after ≈ are worked out from the molar mass of the structure shown.

For the molecule `CC(=O)Nc1ccc(S(=O)(=O)/C(C#N)=C/c2cn(CC(=O)N3CCCC3)c3ccccc23)cc1`, the MIC is 128 µg/mL (≈ 269 µM) in assay [1]; 128 µg/mL (≈ 269 µM) in [2]; 128 µg/mL (≈ 269 µM) in assay [3]; 128 µg/mL (≈ 269 µM) in [4]; 256 µg/mL (≈ 537 µM) in assay [5]; 64 µg/mL (≈ 134 µM) in [6]. The MIC in [7] is 16 µg/mL (≈ 33.6 µM); in assay [8] it was 64 µg/mL (≈ 134 µM); in assay [9], 64 µg/mL (≈ 134 µM); in assay [10] it was 64 µg/mL (≈ 134 µM); in assay [11], 128 µg/mL (≈ 269 µM).
In the case of `C=CCn1cc(/C=C(\C#N)S(=O)(=O)c2ccc(N)cc2)c2ccccc21`, the MIC in assay [1] was 4 µg/mL (≈ 11 µM); in assay [2], 8 µg/mL (≈ 22 µM); in assay [3] it was 64 µg/mL (≈ 176 µM); in [4], 8 µg/mL (≈ 22 µM); in assay [5], 32 µg/mL (≈ 88 µM); in [6], 8 µg/mL (≈ 22 µM). Besides, the MIC is 4 µg/mL (≈ 11 µM) in assay [7]; 64 µg/mL (≈ 176 µM) in assay [8]; 64 µg/mL (≈ 176 µM) in assay [9]; 8 µg/mL (≈ 22 µM) in [10]; 16 µg/mL (≈ 44 µM) in assay [11].
For the molecule `N#C/C(=C\c1c[nH]c2cccc(Cl)c12)S(=O)(=O)c1ccc(N)cc1`, the MIC was found to be 128 µg/mL (≈ 358 µM) in [1]; 64 µg/mL (≈ 179 µM) in assay [2]; 32 µg/mL (≈ 89.4 µM) in assay [3]; 32 µg/mL (≈ 89.4 µM) in [4]; 64 µg/mL (≈ 179 µM) in assay [5]; 256 µg/mL (≈ 715 µM) in assay [6]. The MIC in assay [7] amounted to 32 µg/mL (≈ 89.4 µM); in assay [8], 64 µg/mL (≈ 179 µM); in [9], 16 µg/mL (≈ 44.7 µM); in assay [10] it was 4 µg/mL (≈ 11.2 µM); in assay [11], 64 µg/mL (≈ 179 µM).
With `CC(=O)Nc1ccc(S(=O)(=O)/C(C#N)=C/c2cn(C(=O)OC(C)(C)C)c3ccccc23)cc1`, the MIC was 128 µg/mL (≈ 275 µM) in assay [1]; 128 µg/mL (≈ 275 µM) in assay [2]; 128 µg/mL (≈ 275 µM) in assay [3]; 128 µg/mL (≈ 275 µM) in assay [4]; 32 µg/mL (≈ 68.7 µM) in assay [5]; 128 µg/mL (≈ 275 µM) in [6]. Also, the MIC amounted to 2 µg/mL (≈ 4.3 µM) in [7]; 128 µg/mL (≈ 275 µM) in [8]; 64 µg/mL (≈ 137 µM) in assay [9]; 128 µg/mL (≈ 275 µM) in [10]; 128 µg/mL (≈ 275 µM) in [11].
As to `CCCCCCCCn1cc(/C=C(\C#N)S(=O)(=O)c2ccc(N)cc2)c2ccccc21`, the MIC is 32 µg/mL (≈ 73.5 µM) in assay [1]; 32 µg/mL (≈ 73.5 µM) in [2]; 128 µg/mL (≈ 294 µM) in assay [3]; 32 µg/mL (≈ 73.5 µM) in [4]; 256 µg/mL (≈ 588 µM) in [5]; 128 µg/mL (≈ 294 µM) in [6]. The MIC turned out to be 16 µg/mL (≈ 36.7 µM) in [7]; 64 µg/mL (≈ 147 µM) in [8]; 32 µg/mL (≈ 73.5 µM) in assay [9]; 4 µg/mL (≈ 9.18 µM) in assay [10]; 64 µg/mL (≈ 147 µM) in assay [11].
Take `CC(C)=CCn1cc(/C=C(\C#N)S(=O)(=O)c2ccc(N)cc2)c2ccccc21`: the MIC in assay [1] came to 16 µg/mL (≈ 40.9 µM); in [2], 8 µg/mL (≈ 20.4 µM); in [3], 64 µg/mL (≈ 163 µM); in [4], 128 µg/mL (≈ 327 µM); in assay [5], 32 µg/mL (≈ 81.7 µM); in assay [6], 8 µg/mL (≈ 20.4 µM). In addition, the MIC in assay [7] came out at 128 µg/mL (≈ 327 µM); in assay [8] it was 2 µg/mL (≈ 5.11 µM); in assay [9], 0.5 µg/mL (≈ 1.28 µM); in assay [10], 8 µg/mL (≈ 20.4 µM); in assay [11], 8 µg/mL (≈ 20.4 µM).
`CCn1cc(C(=O)O)c(=O)c2cc(F)c(N3CCNCC3)cc21` [NORFLOXACIN]: the MIC in assay [1] came out at 2 µg/mL (≈ 6.26 µM); in [2] it was 4 µg/mL (≈ 12.5 µM); in assay [3] it was 2 µg/mL (≈ 6.26 µM); in [4] it was 4 µg/mL (≈ 12.5 µM); in assay [5], 8 µg/mL (≈ 25.1 µM); in assay [6], 4 µg/mL (≈ 12.5 µM). Further, the MIC in [7] amounted to 1 µg/mL (≈ 3.13 µM); in assay [8], 2 µg/mL (≈ 6.26 µM); in [9], 4 µg/mL (≈ 12.5 µM); in assay [10], 2 µg/mL (≈ 6.26 µM); in assay [11], 4 µg/mL (≈ 12.5 µM).
With `CC(=O)Nc1ccc(S(=O)(=O)/C(C#N)=C/c2c[nH]c3ccccc23)cc1`, the MIC in assay [1] was 8 µg/mL (≈ 21.9 µM); in [2], 1 µg/mL (≈ 2.74 µM); in assay [3], 256 µg/mL (≈ 701 µM); in assay [4] it was 2 µg/mL (≈ 5.47 µM); in assay [5], 8 µg/mL (≈ 21.9 µM); in [6], 64 µg/mL (≈ 175 µM). Moreover, the MIC is 8 µg/mL (≈ 21.9 µM) in assay [7]; 32 µg/mL (≈ 87.6 µM) in assay [8]; 0.5 µg/mL (≈ 1.37 µM) in [9]; 16 µg/mL (≈ 43.8 µM) in assay [10]; 4 µg/mL (≈ 10.9 µM) in [11].
Consider `CC(=O)Nc1ccc(S(=O)(=O)/C(C#N)=C/c2cn(C)c3ccccc23)cc1`, for which the MIC in [1] is 8 µg/mL (≈ 21.1 µM); in assay [2], 64 µg/mL (≈ 169 µM); in assay [3] it was 128 µg/mL (≈ 337 µM); in assay [4], 128 µg/mL (≈ 337 µM); in assay [5], 16 µg/mL (≈ 42.2 µM); in assay [6], 16 µg/mL (≈ 42.2 µM). Further, the MIC stood at 128 µg/mL (≈ 337 µM) in assay [7]; 32 µg/mL (≈ 84.3 µM) in assay [8]; 0.5 µg/mL (≈ 1.32 µM) in [9]; 128 µg/mL (≈ 337 µM) in assay [10]; 0.5 µg/mL (≈ 1.32 µM) in assay [11].
Regarding `N#C/C(=C\c1cn(Cc2ccccc2F)c2ccccc12)S(=O)(=O)c1ccc(N)cc1`, the MIC in assay [1] was 8 µg/mL (≈ 18.5 µM); in assay [2], 128 µg/mL (≈ 297 µM); in assay [3], 256 µg/mL (≈ 593 µM); in assay [4], 64 µg/mL (≈ 148 µM); in assay [5], 64 µg/mL (≈ 148 µM); in [6], 256 µg/mL (≈ 593 µM). Moreover, the MIC in assay [7] worked out at 4 µg/mL (≈ 9.27 µM); in assay [8] it was 64 µg/mL (≈ 148 µM); in assay [9], 256 µg/mL (≈ 593 µM); in assay [10], 128 µg/mL (≈ 297 µM); in [11], 8 µg/mL (≈ 18.5 µM).
Consider `N#C/C(=C\c1c[nH]c2cc(F)ccc12)S(=O)(=O)c1ccc(N)cc1`, for which the MIC came to 4 µg/mL (≈ 11.7 µM) in assay [1]; 8 µg/mL (≈ 23.4 µM) in assay [2]; 4 µg/mL (≈ 11.7 µM) in [3]; 8 µg/mL (≈ 23.4 µM) in [4]; 16 µg/mL (≈ 46.9 µM) in [5]; 256 µg/mL (≈ 750 µM) in assay [6]. Moreover, the MIC in [7] is 128 µg/mL (≈ 375 µM); in assay [8], 4 µg/mL (≈ 11.7 µM); in [9], 8 µg/mL (≈ 23.4 µM); in assay [10], 64 µg/mL (≈ 187 µM); in assay [11], 8 µg/mL (≈ 23.4 µM).
For the molecule `CC(=O)Nc1ccc(S(=O)(=O)/C(C#N)=C/c2cn(CC3CCCCC3)c3ccccc23)cc1`, the MIC in assay [1] amounted to 64 µg/mL (≈ 139 µM); in assay [2], 2 µg/mL (≈ 4.33 µM); in [3], 32 µg/mL (≈ 69.3 µM); in assay [4], 32 µg/mL (≈ 69.3 µM); in assay [5], 64 µg/mL (≈ 139 µM); in assay [6], 256 µg/mL (≈ 555 µM). The MIC is 64 µg/mL (≈ 139 µM) in assay [7]; 64 µg/mL (≈ 139 µM) in [8]; 32 µg/mL (≈ 69.3 µM) in [9]; 128 µg/mL (≈ 277 µM) in assay [10]; 32 µg/mL (≈ 69.3 µM) in assay [11].
In the case of `CC(=O)Nc1ccc(S(=O)(=O)/C(C#N)=C/c2c[nH]c3cccc(Cl)c23)cc1`, the MIC worked out at 128 µg/mL (≈ 320 µM) in assay [1]; 32 µg/mL (≈ 80 µM) in [2]; 32 µg/mL (≈ 80 µM) in [3]; 32 µg/mL (≈ 80 µM) in assay [4]; 64 µg/mL (≈ 160 µM) in assay [5]; 128 µg/mL (≈ 320 µM) in [6]. Also, the MIC in [7] was 32 µg/mL (≈ 80 µM); in assay [8], 64 µg/mL (≈ 160 µM); in assay [9], 16 µg/mL (≈ 40 µM); in [10] it was 4 µg/mL (≈ 10 µM); in assay [11] it was 16 µg/mL (≈ 40 µM).
In the case of `CC(=O)Nc1ccc(S(=O)(=O)/C(C#N)=C/c2cn(Cc3cccc(Cl)c3)c3ccccc23)cc1`, the MIC in assay [1] was 128 µg/mL (≈ 261 µM); in assay [2], 64 µg/mL (≈ 131 µM); in assay [3] it was 64 µg/mL (≈ 131 µM); in [4] it was 256 µg/mL (≈ 522 µM); in assay [5] it was 128 µg/mL (≈ 261 µM); in [6], 128 µg/mL (≈ 261 µM). For the same molecule, the MIC is 8 µg/mL (≈ 16.3 µM) in [7]; 64 µg/mL (≈ 131 µM) in assay [8]; 64 µg/mL (≈ 131 µM) in [9]; 16 µg/mL (≈ 32.7 µM) in assay [10]; 4 µg/mL (≈ 8.16 µM) in assay [11].
